{"source": "paper PMC4747383", "about": "“Design of a peptidic inhibitor that targets the dimer interface of a prototypic galectin” (Oncotarget, 2015)", "format_in_all_cases": "cell-based", "key": {"Jurkat T cells [1]": {"tested_on": "Jurkat T cells", "test": "Apoptosis/toxicity of peptide alone on Jurkat T cells", "settings": "for apoptosis induced by peptide alone in Jurkat T cells: 4 h at 37°C, Annexin V/PI two-color flow cytometry, three independent experiments", "experimental": "(§1) Apoptosis was measured by flow cytometry using FITC-labeled Annexin V (Biolegend, San Diego, CA, USA) and propidium iodide (PI). Briefly, the corresponding dilutions of recombinant hGal-7 and hGal-7(129–135) peptides were pre-incubated for 1 h at 4°C in serum free RPMI 1640 medium. 2.5 × 10^5 Jurkat cells were then harvested in the same medium and incubated with their corresponding dilutions at 37°C for 4 h. Cells were washed once in PBS and once in binding buffer (0.01 M HEPES, 0.14 M NaCl, 2.5 mM CaCl2, pH 7.4). Cells were then incubated for 15 min with Annexin V in the dark at room temperature. A total of 400 μL of binding buffer containing 0.25 μg/mL propidium iodide was added to the cells before analysis by flow cytometry.\nSupplementary Figure S4: Inability of the control peptide (PACAP) to induce apoptosis on Jurkat T cells. Jurkat T cells wee incubated 4 h at 37°C with increasing concentrations of the control peptide PACAP before two-color flow cytometric analysis. On the left histograms, cells in the lower right quadrant are representative of annexin V-positive/PI-negative, or early apoptotic cells. Cells in the upper right quadrant indicate annexin V-positive/PI-positive, or late apoptotic cells. The right histograms show the percentages of annexin V-positive Jurkat T cells obtained by adding the percentages of cells found in the lower and upper right quadrants. Results are representative of three independent experiments. Error bars represent standard deviation.\n(also on this page, place not known: www.impactjournals.com/oncotarget/ Oncotarget, Materials 2015 Supplementary) […]"}, "Jurkat T cells [2]": {"tested_on": "Jurkat T cells", "test": "hGal-7-induced apoptosis of Jurkat T cells, Annexin V/PI flow cytometry", "settings": "hGal-7 and peptide pre-incubated 1 h at 4°C, cells 4 h at 37°C, serum free RPMI 1640, three independent experiments", "experimental": "(§2) Apoptosis was measured by Western blot analysis of PARP-1 cleavage. The PACAP28–38 was used as a control. β-actin was used as a loading control. B. Flow cytometric analysis of Jurkat T cells with stained Annexin V (FL1) and propidium iodide-PI (FL3) following binding of recombinant hGal-7 with or without hGal-7(129–135). Cells in the lower right quadrant are representative of annexin V-positive/PI-negative, or early apoptotic cells. Cells in the upper right quadrant indicate annexin V-positive/PI-positive, or late apoptotic cells. C. Histogram showing the percentages of annexin V-positive Jurkat T cells obtained by adding the percentages of cells found in the lower and upper right quadrants. Results are representative of three independent experiments. Error bars represent standard deviation.\nas §1"}, "Jurkat T cells [3]": {"tested_on": "Jurkat T cells", "test": "hGal-7-induced apoptosis of Jurkat T cells, PARP-1 cleavage (Western blot)", "settings": "hGal-7 pre-incubated with peptide, then Jurkat cells 4 h at 37°C, serum-free RPMI, Supplementary Fig. S3: peptide 200 μM", "experimental": "as §2\nFor the apoptosis tests, whole-cell extracts were homogenized and resuspended in RIPA buffer (Thermo Fisher Scientific, Rockford, IL, USA) containing protease inhibitors (Roche, Laval, QC, Canada). Equal amounts of whole-cell extracts (25 μg) were separated on SDS-PAGE and transferred onto nitrocellulose membranes (Bio-Rad Laboratories). The membranes were first blocked with 5% milk [w/v] in TBS/0.5% Tween 20 [v/v] for 1 h at room temperature and subsequently blotted overnight in a solution of TBS containing 3% BSA [w/v] and 0.5% Tween 20 [v/v]. The following antibodies were used: a rabbit anti-poly-(ADP-ribose) polymerase (PARP)-1 (p25) polyclonal antibody (1:5000; Epitomics, Burlingame, CA, USA) and a mouse anti-β-actin (1:10000; Sigma-Aldrich, St. Louis, MO, USA). Secondary antibodies consisted of horseradish peroxidase-conjugated donkey anti-rabbit (GE Healthcare, Buckinghamshire, England) and sheep anti-mouse (GE Healthcare) IgG. Detection was performed using the enhanced chemiluminescence method (GE Healthcare). […]\nconcentrations of recombinant human gaI-7 were pre-incubated with the hGaI-7129–135 (200 μM) prior to its addition to A. Jurkat T cells or B. PBMCs. Apoptosis wa, measured after 4 h at 37°C in serum·free conditions. […]"}}, "note": "Entries after “also recorded” stand apart in the source; their conditions may differ. No end group written: not given here.", "data": [{"substance": "H-LDSVRIP-NH2 [hGal-7(129–135), peptide corresponding to hGal-7 segment between residues 129–135]", "values": [{"measurement": "apoptosis induced by peptide alone in Jurkat T cells", "setting": "Jurkat T cells [1]", "value": "did not induce apoptosis in Jurkat T cells"}, {"measurement": "hGal-7-induced apoptosis of Jurkat T cells (Annexin V/PI)", "setting": "Jurkat T cells [2]", "value": "This effect on apoptosis was confirmed by flow cytomtery"}, {"measurement": "hGal-7-induced apoptosis of Jurkat T cells (Annexin V/PI)", "setting": "Jurkat T cells [2]; listed as hGal-7 (129–135)", "value": "Apoptotic levels of Jurkat T cells induced by hGal-7 were decreased"}, {"measurement": "inhibition of hGal-7-induced apoptosis in Jurkat T cells (PARP-1 cleavage)", "setting": "Jurkat T cells [3]", "value": "inhibited the ability of hGal-7 to induce apoptosis in Jurkat T cells; also recorded: dose-dependent"}, {"measurement": "inhibition of hGal-7-induced apoptosis in Jurkat T cells (PARP-1 cleavage)", "setting": "Jurkat T cells [3]; listed as hGaI-7129–135", "value": "decreases gaI-7-induced apoptosis"}]}, {"substance": "PACAP(28–38): an inactive fragment of the human Pituitary Adenylate Cyclase-Activating Polypeptide (PACAP) (GKRYKQRVKNK-NH2; ends and bridges not checked; UniProt P18509 159-169, looked up, fragment)", "values": [{"measurement": "toxicity of peptide alone on Jurkat T cells", "setting": "Jurkat T cells [1]", "value": "did not display any toxicity on Jurkat T cells alone; also recorded: minimal toxicity on the cell line"}, {"measurement": "apoptosis induced by peptide alone in Jurkat T cells", "setting": "Jurkat T cells [1]", "value": "did not induce apoptosis in Jurkat T cells; also recorded: does not induce apoptosis"}, {"measurement": "apoptosis induced by peptide alone in Jurkat T cells", "setting": "Jurkat T cells [1]; listed as PACAP", "value": "Inability"}, {"measurement": "hGal-7-induced apoptosis of Jurkat T cells (Annexin V/PI)", "setting": "Jurkat T cells [2]", "value": "a slight increase in apoptosis is observed"}, {"measurement": "inhibition of hGal-7-induced apoptosis in Jurkat T cells (PARP-1 cleavage)", "setting": "Jurkat T cells [3]", "value": "No such effect was observed with the control peptide"}]}]}
